“Also recorded” adds a separate entry of the source. Where no end group is shown, it is not given here.
What was measured:
TLR3 signaling = test: IL-6 production (ELISA) in BEAS-2B cells induced with poly(I:C); assay type: cell-based, human; settings: for Enhancement of TLR3 signaling / poly(I:C)-induced IL-6, in words: BEAS-2B cells; for IL-6 production (%) poly(I:C)-depend.: BEAS-2B cells induced with 130 ng/ml of poly(I:C), LL-37 100
Procedure: (§1) IL-6 production was quantified by ELISA using the OptEIA™ kit (BD Biosciences). A typical assay used 2×10^4 BEAS-2B cells/well grown for 24 h in flat bottom 96-well plates. Poly(I:C) was added to a final concentration of 0.13 μg/ml. Antimicrobial peptides were added to the cell culture medium to a final concentration of 3 μM unless specified otherwise. All ELISA results shown were performed in triplicate and in at least three independent experiments.
(§2) To better define how residues in LL-37 contribute to function, several variants derived from LL-37 were tested for: 1) repression of TLR4 signaling by LPS, 2) enhancement of TLR3 signaling by poly(I:C), and 3) binding to LL-37. Signaling by TLR3 and TLR4 were monitored using ELISA to detect IL-6 secreted into the medium of BEAS-2B cells.

TLR4 signaling = test: IL-6 production (ELISA) in BEAS-2B cells induced with LPS; assay type: cell-based, human; settings: for IL-6 production (%) LPS-depend.: BEAS-2B cells induced with 1.0 μg/ml of LPS, LL-37 100
Procedure: as §1, §2

[1] = Dynamic light scatter spectroscopy, hydrodynamic radius; assay type: physicochemical; settings: for Hydrodynamic radius (nm) pH 5.8 / Hydrodynamic radius (nm) pH 7.4: 1.0 μM peptide; for Hydrodynamic radius (nm) pH 5.8: phosphate buffer pH 5.8; for Hydrodynamic radius (nm) pH 7.4: phosphate buffer pH 7.4; for pH-dependent dissociation of peptide particles, in words: acidification of phosphate buffer
Procedure: The hydrodynamic radii of LL-37 and other peptides were monitored by a Zetasizer Nano-S instrument (Malvern Instruments). All measurements were taken with 1 μM of peptide dissolved in phosphate buffer adjusted to the desired pH at 22° C.

f-LL37 = biological target: T1, f-LL37 (Homo sapiens, UniProt P49913); test: Fluorescence polarization, interaction of peptides with fluorescein-labeled LL-37; assay type: binding
T1 sequence (P49913 134-170 limits assumed): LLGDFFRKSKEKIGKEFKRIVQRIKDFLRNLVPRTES
Procedure: (§3) Peptide binding to poly(I:C) was analyzed by monitoring fluorescence polarization using the Synergy H1 microplate reader (BioTek). Fluorescein-labeled LL-37 was titrated to a 100 μL solution containing poly(I:C) and phosphate buffers at different pHs. Interactions between LL-37 and other peptides were analyzed using LL-37 labeled at the N-terminus with fluorescein (0.1 μM), and peptides were titrated from 1 nM to 1000 nM in phosphate buffer at pH 7.0. Interaction between poly(I:C) and different peptides was determined by titrating fluorescein-labeled poly(I:C) (0.1 μM) with peptides added to final concentrations of 10 to 500 nM in phosphate buffer at pH 7.4. All polarization assays were performed in triplicate.

poly(I:C) = test: Fluorescence polarization, peptide binding to poly(I:C)
Procedure: as §3
LL-37 accompanies dsRNA to endosomes containing TLR3. However, it is unknown whether LL-37 will release the dsRNA in endosomes. Johansson et al. (1998) have previously determined that a neutral pH is required for the activity of LL-37. We seek to determine whether LL-37 binding to dsRNA can be affected by pH.

[2] = system: LL-37 enhancement of TLR3 signaling; test: Antagonism of LL-37/poly(I:C)-enhanced IL-6 production in BEAS-2B cells; assay type: cell-based, human; settings: peptide added with LL-37/poly(I:C), BEAS-2B cells
Procedure: as §1
We examined whether LL-29 could affect the enhancement of TLR3 signaling by WT LL-37/poly(I:C). An increasing amount of LL-29 along with a constant amount of LL-37/poly(I:C) was used to assess IL-6 production in BEAS-2B cells. […] That is, LL-29 abrogated LL-37's ability to enhance TLR3 signaling. That is, LL-29 is an example of a peptide antagonist of LL-37 function.

FPRL-1 receptor = biological target: T2, FPRL-1 receptor (Homo sapiens, UniProt P25090); test: IL-6 production in BEAS-2B cells knocked down with siRNA (FPRL-1, EGFR, control); assay type: cell-based; settings: for IL-6 production, peptide added along with LL-37 and poly(I:C), in words: siRNA to FPRL-1 or nonspecific control; for IL-6 production, peptide with poly(I:C), in words: knockdown of either FPRL-1 or EGFR
T2 construct: a human lung epithelial cell line that expresses endogenous FPRL-1; endogenous in cells; host or cells: BEAS-2B
T2 sequence (P25090 1-351): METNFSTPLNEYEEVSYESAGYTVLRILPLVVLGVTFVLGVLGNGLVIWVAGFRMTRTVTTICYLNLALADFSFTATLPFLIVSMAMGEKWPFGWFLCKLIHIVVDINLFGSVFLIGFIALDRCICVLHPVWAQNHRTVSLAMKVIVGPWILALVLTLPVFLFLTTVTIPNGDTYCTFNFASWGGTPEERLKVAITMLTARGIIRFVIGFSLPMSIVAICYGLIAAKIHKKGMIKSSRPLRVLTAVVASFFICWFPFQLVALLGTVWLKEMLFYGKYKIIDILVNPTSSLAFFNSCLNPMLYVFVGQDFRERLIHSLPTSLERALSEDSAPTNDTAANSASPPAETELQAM
Procedure: BEAS-2B cells were seeded at 2×10^6 cells per 6-well plate for 6 h prior to transfection with 30 nM of a pool of three siRNAs from Santa Cruz Biotechnology. Transfections were done using Lipofectamine 2000.
Cells were grown on poly-L-lysine (Life Technologies). The level of target mRNA was analyzed using qRT-PCR and normalized to the levels of GAPDH mRNA. The sequences of the primers will be made available upon request. Poly(I:C) was added 48 h after siRNA transfection and IL-6 levels in the culture media were collected 24 h later.
LL-37's enhancement of TLR3 signaling required trafficking of LL-37/poly(:C) to endosomes via the FPRL-1 receptor. Therefore, we examined whether LL-29 used the FPRL-1 receptor to enter cells. siRNA was used to knock down the expression of either FPRL-1, EGFR, or TLR3. […] Co-localization of fLL-37 and rpIC was reduced to less than a third of the control. […] Knockdowns performed with siRNAs to either a nonspecific control or EGFR had no effect on the enhancement of IL-6 production.
Will LL-29 affect the use of the FPRL-1 receptor by the LL-37/poly(I:C) complex? BEAS-2B cells knocked down for FPRL-1 were treated with LL-37 along with additional concentrations of LL-37, Pentamide, LL-29, Peptide A, or LL8-37 (FIG. 6C). Signaling by TLR3 was determined by the amount of IL-6 secreted in the cell culture media. A control siRNA had no effect on WT LL-37/poly(I:C) enhancement of IL-6 production.
LL-37 uses the Formyl peptide receptor-like 1 (FPRL-1) receptor to deliver nucleic acids into endosomes, where activation of the Toll-like receptors that recognize nucleic acids takes place (Singh et al., 2014). We sought to determine whether the LL-37 orthologs from other mammals could also use the FPRL-1 in the human BEAS-2B cells to deliver dsRNA. BEAS-2B cells were treated with poly(I:C) along with the peptides and the peptides from pig, sheep, rabbit, and mouse had reduced ability to use the FPRL-1 to activate IL-6 production.

[3] = system: Escherichia coli ATCC 25922; test: MIC assay, broth microdilution (CLSI); assay type: cell-based; settings: E. coli ATCC 25922; peptide: None
Procedure: MIC assays were performed according to protocols for broth microdilution according to the Clinical Laboratory Standards Institute (CLSI, 2015. Methods for Dilution Antimicrobial susceptibility tests for bacterial that grow aerobically; Approved standard—tenth edition).

Reovirus dsRNA, Reo S4 = test: IL-6 production in BEAS-2B cells in the presence of Reovirus dsRNA Reo S4; assay type: cell-based, human
Procedure: as §1
Herein, we analyzed the LL-37 orthologs from Rhesus monkeys, pig, sheep, guinea pigs, rabbit, as well as mouse (FIG. 14A). All peptides were chemically synthesized and assayed for the induction of inflammatory cytokine IL-6 in the presence of the double-stranded RNA mimic, poly(I:C) or the Reovirus dsRNA, Reo S4 (FIGS. 14B and 14C). […] Importantly, all LL-37 orthologs tested had the ability to reduce IL-6 production in response to LPS (FIG. 14E).

| Compound | Enhancement of TLR3 signaling / poly(I:C)-induced IL-6, in words (TLR3 signaling) | IL-6 production (%) LPS-depend. (TLR4 signaling) [%] | IL-6 production (%) poly(I:C)-depend. (TLR3 signaling) [%] | Hydrodynamic radius (nm) pH 5.8 [1] [nm] | Hydrodynamic radius (nm) pH 7.4 [1] [nm] | pH-dependent dissociation of peptide particles, in words [1] | Interaction with fLL-37, in words (f-LL37) | Binding to poly(I:C)/dsRNA in fluorescent polarization assay, in words (poly(I:C)) | IL-6 production, peptide added along with LL-37 and poly(I:C), in words (FPRL-1 receptor) | MIC (μg/ml) of antibiotic, no peptide [3] [µg/mL] | also measured |
| --- | --- | --- | --- | --- | --- | --- | --- | --- | --- | --- | --- |
| RL-37: LL-37 ortholog from Rhesus monkey, SEQ ID NO: 20 (RLGNFFRKVKEKIGGGLKKVGQKIKDFLGNLVPRTAS; (1)..(37) Monkey RL-37; listed as Macaca mulatta) [reference compound] | more similar to that of the human LL-37 | – | – | – | – | – | – | – | – | – | – |
| LLGDFFRKSKEKIGKEFKRIVQRIKDFLRKLVPQPEQ (listed as Homo sapiens) [Peptide A] | – | 161 ± 11 | 41 ± 6 | 956 | 1990 | reduced for the ability to dissociate under acidic pH conditions | retained partial interaction with fLL-37; also recorded: retain partial activity to interact with fLL-37 | debilitated for binding RNA | resulted in a reduction in IL-6 levels | – | Antagonism of LL-37 enhancement of TLR3 signaling (IL-6), in words [2]: to a lesser degree than LL-29; also recorded: can partially antagonize the enhancement of TLR3 signaling |
| COc1cc(Cc2cnc(N)nc2N)cc(OC)c1OC [Trimethoprim, reference compound] | – | – | – | – | – | – | – | – | – | 0.25 | – |
| COc1cccc2c1C(=O)c1c(O)c3c(c(O)c1C2=O)C[C@@](O)(C(=O)CO)C[C@@H]3O[C@H]1C[C@H](N)[C@H](O)[C@H](C)O1 [Doxorubicin, reference compound] | – | – | – | – | – | – | – | – | – | 0.5 | – |
| SKEKIGKEFKRIVQRIKDFLRNLVPRTES ((1)..(29) LL8-37; listed as Homo sapiens) | – | 239 ± 21 | 38 ± 3 | 615 | 825 | – | retain partial activity to interact with fLL-37 | – | had no effect on IL-6 production unless FPRL-1 expression was reduced | – | IL-6 production, peptide with poly(I:C), in words (FPRL-1 receptor): did not enhance IL-6 production |
| NC[C@H]1O[C@H](O[C@H]2[C@H](O)[C@@H](O[C@H]3O[C@H](CO)[C@@H](O)[C@H](N)[C@H]3O)[C@H](N)C[C@@H]2N)[C@H](O)[C@@H](O)[C@@H]1O [Kanamycin, reference compound] | – | – | – | – | – | – | – | – | – | 4 | – |
| GLLRKGGEKIGEKLKKIGQKIKNFFQKLVPQPEQ [mCRAMP, murine ortholog of LL-37, reference compound] | failed to enhance TLR3 signaling; also recorded: unable to enhance IL-6 production | 82 ± 29 | 31 ± 3 | 1106 | 1718 | – | – | failed to bind dsRNA | – | – | Enhancement of IL-6 production / signaling by Reo S4, in words (Reovirus dsRNA, Reo S4): unable to enhance IL-6 production |
| LLGNFFRKSKQKIGKQFKRIVQRIKNFLRNLVPRTQS (not fully specified) [Pentamide, five acidic residues in LL-37 replaced with neutral-polar residues, reference compound] | failed to enhance TLR3 signaling | 400 ± 32 | 31 ± 0 | 1990 | 1106 | failed to dissociate | – | failed to bind dsRNA | had no effect on IL-6 production unless FPRL-1 expression was reduced | – | Suppression of TLR4 signaling / LPS-induced IL-6, in words (TLR4 signaling; BEAS-2B cells): failed to suppress TLR4 signaling; IL-6 production, peptide with poly(I:C), in words (FPRL-1 receptor): did not enhance IL-6 production |
| SKEKIGKEFKRIVQRIKDFLR [LL9-29] | failed to enhance TLR3 signaling | 196 ± 11 | 31 ± 3 | 1281 | 446.5 | failed to dissociate | did not | – | – | – | Binding f-LL37: fold change in the fluorescence anisotropy values of f-LL-37 (f-LL37; between 1.0 nM and 1000 nM of added peptide): 2.6 ± 0.2 fold |

Reference: patent US10138282B2, “Peptide antagonist of LL-37” (INDIANA UNIVERSITY RESEARCH AND TECHNOLOGY CORPORATION, priority 2014, dated 2018)
